Square brackets hold non-standard residues; d marks the D form. Peptide text beside a SMILES is read from it. Hyp = O=C(O)[C@@H]1C[C@@H](O)CN1; pGlu = O=C1CC[C@@H](C(=O)O)N1
Experiments:
[1] = test system: virgin D. melanogaster females; assay: Post-mating response (receptivity) after injection into virgin females; type: in vivo, Drosophila melanogaster; conditions: injected into the hemocoel of virgin D. melanogaster females; receptivity assayed 5 h after injection with naive Canton-S males
Description: Injections of either Aea-HP-1 or SP into the abdomen of virgin D. melanogaster females were performed as described previously. After injection, females were transferred to individual food vials and were tested after 5 h for receptivity with a naive Canton S male.
Receptivity of virgin females assayed 5 h after injection with either synthetic peptides (Aea-HP-1 or SP) or Ringer's solution alone. Wild type W1118 females were injected and assayed with naïve Canton-S males. Numbers in parenthesis indicate numbers of animal assayed. n.s., p > 0.05; ***p < 0.0001, one-way ANOVA (Tukey post-test) compared with Ringer treatment.

[2] = test system: A. aegypti SPR; assay: Ligand-mediated receptor activation, CHO-K1 cells expressing aequorin; type: cell-based, Aedes aegypti; conditions: A. aegypti SPR in CHO cells with aequorin and Gαqi; up to 10 μM; n = 4
Description: (§1) Ligand-mediated receptor activation was measured using an established expression system employing CHO-K1 cells expressing the Ca^2+ reporter aequorin [42]. The construction of the expression constructs for D. melanogaster sex peptide receptor (SPR) and A. aegypti SPR and the measurement of the luminescent signals have been reported previously.
(§2) Fig. 6 Aea-HP-1 is not an active agonist for SPRs from D. melanogaster (A) and A. aegypti (B). Luminescent responses of CHO cells expressing SPR, aequorin and a chimaeric G-protein, Gαqi, and treated with varying concentrations of Aea-HP-1 and SP. Each data point is mean ± s.d. (n = 4).

[3] = test system: virgin A. aegypti females; assay: Mating rejection after injection into the hemocoel of virgin females; type: in vivo, Aedes aegypti; conditions: 0.1–1 μg injected into the hemocoel of virgin A. aegypti females; data not presented
From the text: Transplantation of MAGs, or injection of gland extracts, into female A. aegypti can elicit a variety of post-mating responses including refractoriness to re-mating and inhibition of host-seeking and biting behavior [13]. […] This failure might be due to lack of accessibility and the known rapid catabolism of Aea-HP-1 in the hemolymph. D. melanogaster SP has wide-ranging effects on physiology and behavior some of which are mediated primarily through activation of the SP/MIP receptor that is expressed in sensory neurons of the uterus. The D. melanogaster SP receptor and its A. aegypti orthologue are also strongly activated by myoinhibitory peptides (MIPs), a family of peptides that are found in species from different insect orders and are considered to be the ancestral ligands for these receptors [[19,33,41]]. The receptors are also activated by unidentified ligands present in whole body extract of adult A. aegypti. Although Aea-HP-1 has no obvious structural similarity to either SP or MIP, the promiscuity of the SP/MIP receptor led us to consider the possibility that the head peptide might also be an agonist of the MIP receptor.

[4] = parameters: species or system Aedes aegypti; conditions: in vivo
Description: Tissues were dissected from adult mosquitoes in phosphate buffered saline (PBS, MP Biomedicals, Cambridge, UK) and collected into acidified methanol (86%, v/v, aqueous methanol and 5% v/v glacial acetic acid). MAGs and male seminal vesicles (SVs) (5 pairs per 100 μl) were typically prepared for analysis by infusing whole tissues in acidified methanol for 30 min, then centrifuging for 10 min at 13,000 rpm in a bench-top microcentrifuge, retaining the supernatant. Homogenization was avoided to provide a cleaner sample for analysis. […]
Mosquito tissues were analyzed for Aea-HP-1 by subjecting either acidified methanol extracts or intact tissues to MALDI/TOF-MS analysis. […]
MALDI/TOF-MS was used to analyze methanol extracts for the presence of Aea-HP-1 in the reproductive tract (uterus, spermathecae, bursa copulatrix, oviduct, but not the ovary) of individual virgin and post-mated females obtained by introducing a single female into a cage of 50 males until mating was observed (<5 min). […] In contrast, the molecular ions for Aea-HP-1 (m/z, 1227.9) and Aea-HP-3 (m/z, 1211.9) were detected in methanol extracts of tissues from nine out of thirteen post-copulated females. Extracts were also analyzed quantitatively by ELISA using synthetic Aea-HP-1 as a standard and the results were compared to the amount of material found in extracts of MAGs dissected from virgin males. […]

[5] = target: T1, D. melanogaster sex peptide receptor (SPR) (Drosophila melanogaster, UniProt Q8SWR3); assay: Ligand-mediated receptor activation, CHO-K1 cells expressing aequorin; type: cell-based; conditions: D. melanogaster SPR in CHO cells with aequorin and Gαqi; up to 10 μM; n = 4
T1 construct: expressed in transfected cells; host or cells: CHO-K1 cells co-expressing aequorin and chimaeric G-protein Gαqi
T1 sequence (Q8SWR3 1-435): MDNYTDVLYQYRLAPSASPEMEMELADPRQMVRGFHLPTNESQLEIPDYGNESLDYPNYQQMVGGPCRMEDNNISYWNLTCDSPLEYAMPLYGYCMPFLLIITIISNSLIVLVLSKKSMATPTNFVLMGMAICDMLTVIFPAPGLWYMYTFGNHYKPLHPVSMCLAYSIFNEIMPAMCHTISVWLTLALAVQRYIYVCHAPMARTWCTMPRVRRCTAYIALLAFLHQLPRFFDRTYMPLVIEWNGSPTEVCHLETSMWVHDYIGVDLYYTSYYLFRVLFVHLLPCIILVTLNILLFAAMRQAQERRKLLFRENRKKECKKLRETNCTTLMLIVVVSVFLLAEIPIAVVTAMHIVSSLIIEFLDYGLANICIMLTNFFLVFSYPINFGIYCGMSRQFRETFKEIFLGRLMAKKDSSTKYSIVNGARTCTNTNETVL
Description: as §1, §2

[6] = test system: isolated oviduct and hindgut of female mosquitoes; conditions: female A. aegypti tissues; cited from earlier work
From the text: (§3) Aea-HP-1 has been tested for myogenic and behavior modifying activity in A. aegypti.

[7] = test system: non-öogenic females; conditions: cited from earlier work
From the text: as §3

[8] = mosquito hemolymph, after 30 min; cited from earlier work
From the text: as §3

## CC(C)C[C@H](NC(=O)[C@H](CO)NC(=O)[C@@H]1C[C@@H](O)CN1C(=O)[C@@H]1CCCN1C(=O)[C@H](CCCNC(=N)N)NC(=O)[C@@H]1CCC(=O)N1)C(=O)N[C@@H](CCCCN)C(=O)N[C@H](C(=O)N[C@@H](CCCNC(=N)N)C(=O)N[C@@H](Cc1ccccc1)C(N)=O)[C@@H](C)O [Aea-HP-1, pERPhPSLKTRFamide] ([pGlu]RP[Hyp]SLKTRF-NH2)
[1]
  rejection of male advances (post-mating response): did not elicit rejection of male advances
[2]
  activation of SP/MIP receptor (luminescent response): did not activate
[3]
  induction of mating rejection: not been able to show that Aea-HP-1 can induce mating rejection
[4]
  persistence in the female reproductive tract after copulation: less than 2 h
[5]
  activation of SP/MIP receptor (luminescent response): did not activate
[6]
  stimulation of contractions of isolated oviduct and hindgut: did not stimulate contractions
[7]; injected into female A. aegypti
  effect on host-seeking behavior: inhibiting host-seeking behavior
[7]; injected into non-öogenic female A. aegypti
  duration of reduction in host-seeking: up to 5 h
[8]
  peptide remaining in the circulation: around 17%

From paper PMC3368272, “The host-seeking inhibitory peptide, Aea-HP-1, is made in the male accessory gland and transferred to the female during copulation” (Peptides, 2012)
